melting point | Structure (SMILES)
190 °C | COc1ccc2c3c1c(C)c(-c1ccc(O)cc1)n3CC(CCO)O2 (centres undefined)
196 to 198 °C | Oc1ccc(-c2cc3c(Br)c(O)ccc3o2)cc1
228 to 229 °C | Cn1c(=O)sc2nc(-c3ccccc3)cn2c1=O
220 to 222 °C | CC(C(=O)C(N)=O)c1ccc(N2Cc3ccccc3C2=O)cc1 (centres undefined)
66 to 68 °C | COc1ccc(SCCCCCCCC(=O)O)cc1
70.5 to 71.2 °C | Cc1cc(CCCCCOc2ccc(-c3nc4ccccc4s3)cc2)on1
55 to 58 °C | CCCCCCCCCCC#Cc1csc(CC(CO)NC(C)=O)c1 (centres undefined)
42.5 to 43.5 °C | CCOC(=O)c1sc(Cl)nc1C(Cl)(Cl)Cl
287 °C | C(=Cc1ccc(-c2nc(-c3ccccc3)no2)cc1)c1ccc(-c2nc3ccccn3n2)cc1
110 to 112 °C | CCCOc1ccc(CC(=O)NCC(=O)O)cc1Cl
316 to 318 °C | COc1ccccc1-n1c(=O)[nH]c2c(C(N)=O)nc(-c3cccc(C#N)c3)nc21
100 to 103 °C | OC1(c2ccccc2)C(c2ccccc2)SC2=NCCCCN21 (centres undefined)
129 to 132 °C | CCCCCCCCCCCCCCCCCC(=O)Oc1ccc2c(c1)C(=O)c1ccc(OC(=O)CCCCCCCCCCCCCCCCC)cc1C2=O
144 to 149 °C | O=P(O)(O)c1cccc(Br)c1
92 to 93 °C | COC(=O)C[C@]1(C(=O)OC)CC(c2ccc(OC)c(OC3CCCC3)c2)=NO1
89 to 90 °C | CCOC(=O)COc1ccc2cnn(C[C@H](C)NC(=O)OCc3ccccc3)c2c1Br
106 to 107 °C | Cc1ccc(S(=O)(=O)OCC2COc3cc(F)c([N+](=O)[O-])cc3O2)cc1 (centres undefined)
226 to 228 °C | O=P(O)(O)C(O)(Cc1c(Cl)cccc1Cl)P(=O)(O)O
230 to 232 °C | CC(C)(C)OC(=O)c1cccc(NC(N)=O)c1
154 to 156 °C | O=C(OCC1CC(O)C(n2cc(F)c(=O)[nH]c2=O)O1)c1ccccc1 (centres undefined)
88 to 89 °C | O=C1NC(=O)C(Cc2ccc(SCCCc3ccccc3)cc2)S1 (centres undefined)
92 to 94 °C | CN(C)CCOc1cc(O)cc(/C=C/c2ccc(O)cc2)c1
242 °C | O=C(Nc1ccc2ccc(Cl)nc2n1)c1c(F)cccc1F
100 to 101 °C | CC(C)(C)c1cc(SC[Si](C)(C)C)cc(C(C)(C)C)c1O

melting point | Structure (SMILES)
183 to 184 °C | CCCn1cc(-c2c(-c3ccc(F)cc3)nn3ccncc23)ccc1=O
92 to 93 °C | O=C1NCCNC1Cc1ccccc1 (centres undefined)
168 to 171 °C | CSC1=NC(C)(C)SC1=NO
97 to 98 °C | Cc1oc(-c2ccccc2)nc1COc1ccc(CCc2oc(-c3ccccc3)nc2CC#N)cc1
226 to 227 °C | CCn1nc(-c2ccccc2)c(C(C)=O)c([N+](=O)[O-])c1=O
69 to 71 °C | CCOC(=O)[C@H](CSCc1ccccc1)NC(=O)C(C)(C)NC(=O)[C@@H](SC(C)=O)C(C)C
38 to 40 °C | COc1ccc(C(=O)CC(C)C)cc1OCCCO
176 to 189 °C | O=C(O)CCNC1CCCN(c2ccc3c(C(=O)NCC45CC6CC(CC(C6)C4)C5)c(Cl)ccc3n2)C1 (centres undefined)
140 to 142 °C | CCNS(=O)(=O)CC(=O)C1=C(C)NC(C)=C(C(=O)OC(C)C)C1c1cccc([N+](=O)[O-])c1 (centres undefined)
150 to 151 °C | O=Cc1c2n(c3ccncc13)CCC2
151 to 152 °C | O=C1NC(=O)C(CCCCc2ccc(O)cc2)O1 (centres undefined)
130 °C | CCOC(=O)C1=C(C)NN=C(c2ccccc2)C1c1ccccc1 (centres undefined)
210 to 211 °C | Cc1cc(Br)cc(C)c1OCC1CCC[N+](C)([O-])C1 (centres undefined)
174 to 175 °C | CCC(=NO)c1cc(Br)c(O)c(CN)c1
85 to 86 °C | O=C(OCc1ccccc1)[C@H](Cc1ccc(-c2ccccc2)cc1)NCP(=O)(Oc1ccccc1)Oc1ccccc1
148 to 149 °C | CCCNc1nc(N)n[nH]1
206 to 208 °C | O=C1c2ccccc2N(N2CCCCCC2)C2=NCCN12
67 °C | Oc1c(CN2CCCC2)cc(Nc2ccnc3ccccc23)cc1CN1CCCC1
88.2 to 89.4 °C | [N-]=[N+]=Nc1ccc(C=Cc2ccncc2)cc1
205 °C | Cc1c(CC=CN2CCN3c4cc(F)ccc4CCC3C2)cnn1-c1cc(N(C)C)nc(N)n1 (centres undefined)
58 to 59 °C | Cc1cc(CO)ccn1
88 to 94 °C | CCOc1cc2ncc(C#N)c(Nc3ccc(Sc4ccccc4)c(Cl)c3)c2cc1OCC
160 to 165 °C | CCOC(=O)c1cn(CCc2cccc(F)c2)c2cc(C3CC3)nn2c1=O
136 °C | CCOC(=O)c1ccccc1Cn1c(C(=O)O)cc2ccccc21

melting point | Structure (SMILES)
166 to 167 °C | O=c1c2cccnc2c(-c2ccccc2)cn1Cc1ccccc1
150 to 152 °C | COc1ccc2cc(C(C)(O)C(=O)O)ccc2c1 (centres undefined)
154 to 155 °C | CONC(=O)[C@@H](Cc1ccccc1)NC(=O)OC
49 to 50 °C | COc1ccc2c(c1)C=C(C=O)CO2
160 °C | CC(Oc1ccc2nc(N)sc2c1)c1c(F)ccc(Cl)c1F (centres undefined)
174 to 187 °C | CC(=O)Nc1cccc(-c2ccc3nc(-c4cccnc4N)n(-c4ccc(CNC(=O)c5cccc(F)c5)cc4)c3n2)c1
94 to 96 °C | COc1cc(C(C)(C)O)c(OCc2ccccc2)cc1N1CCN(Cc2ccccc2)CC1
127 to 130 °C | O=C(COCc1ccccc1)NC(C(=O)O)c1ccccc1 (centres undefined)
277 °C | Cc1cc(-c2ccc(C(F)(F)F)cc2)nc(-n2cnc(-c3ccc(S(N)(=O)=O)s3)c2)n1
65 to 68 °C | CCCc1nc2cnc3cc(C)ccc3c2o1
152 to 154 °C | CS(=O)(=O)c1ccc(/C=C/c2nc3ccccc3n2-c2ccccn2)cc1
237 to 239 °C | Cc1c(C)c(N2C(=O)c3cc(Cl)c(Cl)cc3C2=O)c(C)c2c1OC(C)(C)C2c1ccc(C(C)C)cc1 (centres undefined)
71 to 72 °C | Cc1ccc(S(=O)(=O)c2ccc(C)cc2CC(Cl)(Cl)C#N)c(CC(Cl)(Cl)C#N)c1
105 to 108 °C | CC(C)(COc1ccccc1C1NC(C(=O)O)CS1)CO[N+](=O)[O-] (centres undefined)
110 to 111 °C | Cc1c(N)c(C)c2c(c1CCCO)OCC2c1ccc(C(C)C)cc1 (centres undefined)
118 to 121 °C | c1ccc(-c2nc3cnccc3o2)cc1
124 to 126 °C | COc1ccc(C(C#N)N2C(=O)c3cccc(NC(C)=O)c3C2=O)cc1OC1CCCC1 (centres undefined)
225 °C | COc1cc2c(cc1-c1ccc(F)cc1C)NC(=O)CC(c1cccc(-n3ccnc3)c1)=N2
148 to 150 °C | Cc1cc(N)n(-c2ccc(Cl)nn2)n1
123 °C | COC(=O)c1ccccc1NC(=O)c1ccc(Br)c(C)c1
88 to 91 °C | O=C1OC(=O)c2cc(Oc3ccc(C(F)(F)F)cc3Cl)ccc21
169 to 171 °C | COC(=O)C(C#N)C(c1ccccc1OC)c1ccnc2ccccc12 (centres undefined)
194 to 195 °C | CCOC(=O)c1cn(C2CC2)c2c(F)c(-c3cc(C)nc(C)c3)c(F)cc2c1=S
150 to 152 °C | Clc1ccc(N2CCN(Cc3n[nH]c4c(Cl)cccc34)CC2)nc1

melting point | Structure (SMILES)
154 to 156 °C | CN1C(O)=C(C(=O)Nc2ccc(Cl)cc2)c2cscc2S1(=O)=O
208 °C | N#Cc1c2ccccc2nc2ccc(Cl)cc12
190 to 192 °C | C[C@]1(CN2CCN(N=Cc3cc4cc(C(F)(F)F)ccc4o3)CC2)Cn2cc([N+](=O)[O-])nc2O1
120 °C | Cn1nc(C(F)(F)F)c(C(=O)Nc2cccc3c2CCC3(C)C)c1Cl
296 to 298 °C | C=CC(=O)Nc1ccc2c(Nc3cccc(Cl)c3)ncnc2c1
115 °C | Clc1cccc(N2CCN(Cc3ccc(-c4ccccc4)s3)CC2)c1
67 to 69 °C | N#Cc1csc2ccccc12
96 to 101 °C | Cc1noc(NS(=O)(=O)c2cc(OCc3ccccc3)ccc2-c2ccc(CC(C)C)cc2)c1C
217 to 219 °C | C[C@@H]1[C@@H](N)CN1c1c(F)cc2c(=O)c(C(=O)O)cn3c2c1OC[C@H]3C
59 to 64 °C | CCCCN(CC(=O)OCc1ccccc1)S(=O)(=O)c1ccc(N2CCC(NC[C@H](O)c3ccc(O)c(NS(C)(=O)=O)c3)CC2)cc1
156 to 159 °C | Cc1n[nH]c2cc(-c3nn(C(C)c4oc5cccc(F)c5c(=O)c4-c4cccc(F)c4)c4ncnc(N)c34)ccc12 (centres undefined)
135 to 137 °C | CCCCc1nn(-c2cc(NC(=O)CC)ccc2Cl)c(=O)n1Cc1ccc(-c2ccccc2S(N)(=O)=O)cc1F
246 °C | O=C1c2ccccc2C(O)N1c1ccc2ccc(F)nc2n1 (centres undefined)
198 to 200 °C | CN(C)c1ccc(C(=O)C=Cc2ccc([N+](=O)[O-])cc2)cc1
177 to 178 °C | O=C(Nc1cc(-c2nc(-c3ccco3)no2)ccc1Cl)Oc1ccccc1
160 to 162 °C | CCOC(=O)c1sc2nc(SCCCN3CCN(c4ccccn4)CC3)[nH]c(=O)c2c1C
99 to 101 °C | COc1cc2sc(C#N)cc2cc1OC(F)F
258 °C | CC12CCC(C(=O)O)=CC1=CCC1C2CCC2(C)C(C(=O)Cc3ccccc3)CCC12 (centres undefined)
337 to 338 °C | COc1ccc(CNc2nc(Cl)cc(Cn3c(C(=O)c4cc(C)cc(C#N)c4)c(C(C)C)c(=O)[nH]c3=O)n2)cc1
161 to 163 °C | C=CCn1c(=O)n(S(=O)(=O)c2ccc(Cl)cc2)c(=O)c2ccc(Cl)cc21
149 to 151 °C | NS(=O)(=O)c1ccccc1CN1CCCC1=O

Structure (SMILES) | melting point
CC(=CC#N)NCc1ccc(Cl)nc1 | 95 to 98 °C
COC(=O)c1cncn1C(c1ccccc1)c1ccccc1 | 129 °C
CN(Cc1ccc(-c2ccc(O)c(Br)c2)cc1)C(=O)c1cn(Cc2ccccc2)c2ccccc12 | 164 to 170 °C
CN1Cc2c(C(=O)OC(C)(C)C)ncn2-c2cccc(C#N)c2C1=O | 213 to 215 °C
CCc1cc(NC(=O)N2CCC(C(=O)O)(c3ccccc3)CC2)c(OC)nc1C | 173 to 174 °C
N#CCN1C2CCC1CC(OC(c1ccccc1)c1ccccc1)C2 (centres undefined) | 94 to 97 °C

Reference: a melting point compilation (Tetko et al.; mined from patent text by program, amines drawn as free bases though some values may be those of a salt)
